Measured values taken from PubChem BioAssay (NCI).
Values joined by “and” are separate entries in the source; they are usually repeats but may differ in a detail not shown here. Identical values can stand only once.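 Where inhibition never reached the appropriate level, the endpoint shown equals the highest concentration tested. Otherwise, values were interpolated linearly from a five-concentration, 48-hour dose response in 96-well plates. GI50 is the concentration that inhibits growth by half. TGI denotes the concentration required for complete inhibition of growth.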

Assays:
Assay in all cases: NCI anticancer screen, dose series, 48 h
[1] = test system: IGROV1 ovarian
[2] = test system: SNB-19 CNS
[3] = test system: HT29 colon
[4] = test system: UACC-257 melanoma
[5] = test system: EKVX NSCLC
[6] = test system: SF-295 CNS
[7] = test system: MALME-3M melanoma
[8] = test system: NCI/ADR-RES ovarian
[9] = test system: A549 NSCLC
[10] = test system: COLO 205 colon
[11] = test system: MDA-MB-435
[12] = test system: UACC-62 melanoma
[13] = test system: SR leukemia
[14] = test system: SK-OV-3 ovarian
[15] = test system: SNB-75 CNS

SMILES | TGI [1] | TGI [2] [µM] | TGI [3] [µM] | TGI [4] [µM] | TGI [5] | TGI [6] [µM] | TGI [7] | TGI [8] | TGI [9] | TGI [10] | TGI [11] [µM] | TGI [12] | TGI [13] [µM] | TGI [14] | TGI [15] [µM] | GI50 [5] | GI50 [7] [µM] | GI50 [8] | GI50 [10] | GI50 [12]
CCSc1nc(N)c2c(-c3ccc(OC)c(OC)c3)c3c(nc2n1)CCCC3 | > 100 µM | > 100 | > 100 | > 100 | > 100 µM | > 100 | > 100 µM | > 100 µM | > 100 µM | > 100 µM | > 100 | > 100 µM | > 100 | > 100 µM | > 100 |  |  |  |  | 
CC1C(=O)OC2CC[N+]3(CC(=O)c4ccc(Br)cc4)CC=C(COC(=O)C(C)(O)C1(C)O)C23 (stereo not given) | > 375 µM | > 375 | > 375 | > 375 | > 375 µM | > 375 | > 375 µM | > 375 µM | > 375 µM | > 375 µM |  | > 375 µM |  | > 375 µM | > 375 |  |  |  |  | 
COC(=O)CCC(=O)CC(=O)C1=NS(=O)(=O)c2nc(S(N)(=O)=O)c(Cl)cc2N1 | > 100 µM | > 100 | > 100 | > 100 | > 100 µM | > 100 | > 100 µM |  | > 100 µM | > 100 µM |  | > 100 µM | > 100 | > 100 µM | > 100 |  |  |  |  | 
N#C[S-].[Nd+3].c1cnc2c(c1)ccc1cccnc12.c1cnc2c(c1)ccc1cccnc12.c1cnc2c(c1)ccc1cccnc12 | 25.3 µM | 20.3 | 20.2 |  | 18.7 µM | 0.991 | 9.54 µM |  | 10.5 µM | 15.6 µM |  | 5.44 µM | > 100 | 12.5 µM | 26.2 |  |  |  |  | 
CN(C)c1ccc(/C=C2/SC(=S)NC2=O)cc1 | > 100 µM | > 100 | > 100 | > 100 | > 100 µM | > 100 | > 100 µM | > 100 µM | > 100 µM | > 100 µM | > 100 | > 100 µM | > 100 | > 100 µM | > 100 |  |  |  |  | 
Cc1cc(NC(=S)Nc2ccccc2)c(NC(=S)Nc2ccccc2)cc1C | > 100 µM | > 100 | > 100 | > 100 | > 100 µM | 62.2 | > 100 µM | 28.9 µM | > 100 µM | > 74.3 µM |  | > 100 µM |  | > 75 µM | > 94.7 |  |  |  |  | 
Nc1ccccc1CCCC(=O)O | > 100 µM | > 100 | > 100 | > 100 |  | > 100 | > 100 µM | > 100 µM | > 100 µM | > 100 µM | > 100 | > 100 µM | > 100 | > 100 µM | > 100 |  |  |  |  | 
CC(C)(C)NCc1cc(Nc2ccnc3cc(Cl)ccc23)cc(-c2ccc(Cl)cc2)c1O | 7.18 µM | 18.2 | 4.42 | 4.11 | 14.8 µM | 6.23 | 3.28 µM | 14.4 µM | 20.6 µM | 3.35 µM | 3.64 | 3.85 µM | 4.97 | 16.9 µM | 5.13 |  |  |  |  | 
CC1=C(C)C(=O)O[C@@H]([C@](C)(O)[C@]2(O)CC[C@@]3(O)[C@@H]4C[C@H]5O[C@]56[C@@H](O)C=CC(=O)[C@]6(C)[C@H]4CC[C@]23C)C1 | 9.53 µM and 6.51 µM | 31.1 | 5.35 | 3.84 | 3.36 µM and 1.76 µM | 19.5 | 2.27 µM and 2.66 µM | 131 µM and 57.5 µM | 24 µM and 30.9 µM | 0.436 µM and 0.255 µM |  | 3.41 µM and 3 µM |  | 14.7 µM and 20.4 µM | 0.884 | 2.5 µM and 0.404 µM | 0.411 | 9.65 µM and 6.24 µM | 0.0847 µM and 0.0461 µM | 0.288 µM and 0.0848 µM
S=C1SC(=Nc2ccccc2)C(=Nc2ccccc2)N1c1ccccc1 | > 100 µM | > 100 | > 100 |  |  | > 100 | > 100 µM | > 100 µM |  | > 100 µM | > 100 | > 100 µM | > 100 | > 100 µM | 73.7 |  |  |  |  | 
C[n+]1c2ccccc2c(CNc2ccc(S(=O)(=O)N=C(N)N)cc2)c2ccccc21 | 66.6 µM | 31.6 | 49.8 | 41.3 | 64.1 µM | 23.4 | 63.1 µM |  | > 100 µM |  |  | 42.1 µM |  | > 100 µM | 39.9 |  |  |  |  | 
COCO[C@@H]1C[C@H]2C(O)Nc3ccccc3C(=O)N2C1 (stereo not given in full) | > 100 µM | > 100 | > 100 | > 100 | > 100 µM | > 100 |  | > 100 µM | > 100 µM | > 100 µM | > 100 | > 100 µM | > 100 | > 100 µM | > 100 |  |  |  |  | 
